# Experimental data reported in US12048711B2, “Composition and use thereof in the manufacture of medicament for treating cancer” (priority 2020, dated 2024).
# What was measured:
# [1] = system: liver cancer cell line HepG2; colorectal cancer cell line LoVo, HT29, SW620, SW480; assay: MTT cell growth inhibition, Apatinib alone and with Sotagliflozin; type: cell-based; conditions: Apatinib alone 5-30 μM, 48 hours, FIG. 4-a-1 to 4-a-5
# Excerpt: After obtaining the effectiveness of […] in Example 1, the present disclosure further validated another VEGFR-targeting TKI drug, Apatinib. According to the tissue distribution characteristics of VEGFR and SGLT1/2, the targets of Apatinib and Sotagliflozin, the followings cells were selected for experimental verification: liver cancer cell line HepG2; colorectal cancer cell line LoVo, HT29, SW620, SW480; cervical cancer HeLa; ovarian cancer SKOV3; gastric cancer NGC27; cholangiocarcinoma RBE; esophageal cancer KYSE3. After growing to 80% density, the cells were trypsinized, passaged and plated in a 96-well plate with 5000 cells per well. After 24 hours, the medium was replaced with a medium containing the corresponding concentration of Apatinib, Sotagliflozin, or the combination of Apatinib and Sotagliflozin. After 48 hours, the absorbance at each concentration was detected by the MTT method. The experiment included the following groups: Control group: cells were cultured in normal culture medium without drug added. […] The cell growth inhibition rate is calculated by dividing the absorbance value at each concentration by the absorbance value of the control group. […] In the figure, the concentration of Apatinib is taken as the abscissa and the cell growth inhibition rate is taken as the ordinate.
# [2] = system: Liver cancer cell line HepG2; assay: IC50 determination of Apatinib+Sotagliflozin combination on HepG2; type: cell-based; conditions: Homo sapiens, single agent, cell survival rate after 2 h incubation, read-out: IC50 value on HepG2 cells
# Excerpt: After obtaining the effectiveness of […] in Example 1, the present disclosure further validated another VEGFR-targeting TKI drug, Apatinib. According to the tissue distribution characteristics of VEGFR and SGLT1/2, the targets of Apatinib and Sotagliflozin, the followings cells were selected for experimental verification: liver cancer cell line HepG2; colorectal cancer cell line LoVo, HT29, SW620, SW480; cervical cancer HeLa; ovarian cancer SKOV3; gastric cancer NGC27; cholangiocarcinoma RBE; esophageal cancer KYSE3. After growing to 80% density, the cells were trypsinized, passaged and plated in a 96-well plate with 5000 cells per well. […] After 48 hours, the absorbance at each concentration was detected by the MTT method. […]
# Apatinib test group (FIG. 4-b-1): cells were treated by adding Apatinib alone at 6 different concentrations, 0 μM, 5 μM, 10 μM, 20 μM, 30 μM and 40 μM, respectively, to the culture medium, and cell survival rate was measured after 2 h incubation.
# Sotagliflozin test group (FIG. 4-b-2): cells were treated by adding Sotagliflozin alone at 7 different concentrations, 0 μM, 20 μM, 30 μM, 40 μM, 60 μM, 80 μM and 100 μM respectively, to the culture medium, and cell survival rate was measured after 2 h incubation. […]
# lung cancer A549 cells [3] = assay: A549 xenograft tumor treatment trial in nude mice; type: in vivo, Balbc nude mice; conditions: for Average tumor volume: in mm³ (unit assumed)
# Method: After growing to the logarithmic phase, A549 cells were collected and resuspended in serum-free DMEM medium to 5×10^7 cells per ml. Each mouse was inoculated with 100 μl of 5×10^6 cells, and the tumor size was measured 19 days later. Mice were grouped according to the tumor size, and the average tumor size in each group was the same. Mice were administered after grouping. […] The dosage of Gefitinib was 100 mg per kilogram according to the reported dose for the treatment of A549 xenografts in previous studies. The two drugs were administered by gavage, consistent with the current oral mode in clinical use. The dosing cycle was once every two days. The tumor size was measured every two days. After 40 days of administration, the test was ended, and the tumor was removed and weighed.
# lung cancer A549 cells [4] = assay: Trypan blue staining of A549 cells treated with Gefitinib in sugar-free and sugar-containing medium; type: cell-based; conditions: 20 μM Gefitinib, 48 hours
# Method: […]. A549 cells were grown to 80% density, passed, resuspended in a normal medium (25 mM glucose) to a concentration of 4×10^5 cells per ml, and plated in a 24-well plate with 1 ml per well. After 24 hours, the medium was changed to sugar-free medium (0 mM glucose) and normal medium, respectively, and added with Gefitinib for treating the cell. After 48 hours, the medium was discarded, and 1 ml of 1×PBS was added to wash once, and 1 ml of 1×Trypan Blue was added to each well for staining for 10 minutes. Then, the trypan blue staining solution was aspirated, and the plate was washed three times by adding 1 ml of 1×PBS, and photographed under a light microscope. […] […]. […] According to the background section, cancer cells mainly rely on the SGLT family of proteins to absorb sugar. Therefore, the present disclosure relates use of a composition comprising dual inhibitor Sotagliflozin of SGLT1 and SGLT2, the two most important members of the SGLT family highly expressed in cancer cells, and a tyrosine kinase inhibitor in the manufacture of a medicament for treating cancer.
# . Based on the previous findings illustrated in FIG. 1, Sotagliflozin was purchased from Selleck Chemicals for growth inhibition test of cancer cell in vitro. […] Therefore, the concentration of Sotagliflozin used in the subsequent compositions of this experiment were lower than 80 μM to avoid affecting normal cells.
# [5] = system: liver cancer HepG2 cells, colorectal cancer LoVo, HT29, DLD1, SW480, and HCT116 cells; assay: Growth inhibition by Lenvatinib alone and with Sotagliflozin in a variety of cell lines; type: cell-based; conditions: addition of Sotagliflozin at a safe dose; FIG. 5
# Excerpt: Therefore, the effect of the combination in the safe concentration range of Sotagliflozin is better than the effect of each single agent. It is worth mentioning that the ability of Sotagliflozin in the combination to enhance the efficacy of VEGFR-targeting TKI drugs is not limited to a single drug of Apatinib.
# [6] = system: Lung cancer cell line A549; assay: IC50 determination of EGFR inhibitor + Sotagliflozin combination on A549; type: cell-based; conditions: Homo sapiens, single agent, cell survival rate after 1 h incubation, read-out: IC50 value on A549 cells
# Method: After growing to 80% density, the cells were trypsinized, passaged and plated in a 96-well plate with 5000 cells per well. After 24 hours, the medium was replaced with a medium containing the corresponding concentration of drug. After 48 hours, the absorbance at each concentration was detected by the MTT method.
# [7] = system: normal human umbilical cord epithelial cells; assay: Determination of the safe concentration of Sotagliflozin on normal cells; type: cell-based
# Method: The killing effect of Gefitinib on lung cancer A549 cells cultured in sugar-free medium and sugar-containing medium 48 hours after treating A549 cells with 20 μM Gefitinib, trypan blue staining was used to distinguish live cells from dead cells which were stained blue by trypan blue. Based on the previous findings illustrated in FIG. 1, Sotagliflozin was purchased from Selleck Chemicals for growth inhibition test of cancer cell in vitro. […] Therefore, the concentration of Sotagliflozin used in the subsequent compositions of this experiment were lower than 80 μM to avoid affecting normal cells.
# [8] = A549 tumor-bearing mice, gavage once every two days, 40 days, Sotagliflozin 30 mg/kg, Gefitinib 100 mg/kg
compound,measurement,setting,value
N#CC1(c2ccc(NC(=O)c3cccnc3NCc3ccncc3)cc2)CCCC1 [Apatinib],inhibitory effect on tumor cells (cell growth inhibition rate),[1],limited
same,IC50,[2],46 µM
COc1cc2ncnc(Nc3ccc(F)c(Cl)c3)c2cc1OCCCN1CCOCC1 [Gefitinib],Tumor volume ratio of each group to the control group,"lung cancer A549 cells [3]; mouse, in vivo",0.4881
same,effectiveness evaluation,"lung cancer A549 cells [3]; mouse, in vivo",ineffective
same,Average tumor volume,"lung cancer A549 cells [3]; mouse, in vivo",504.8
same,trypan blue staining (dead cells stained blue),lung cancer A549 cells [4]; normal medium (25 mM glucose),almost no blue coloration
same,trypan blue staining (dead cells stained blue),lung cancer A549 cells [4]; sugar-free medium (0 mM glucose),"almost all colored blue, indicating dead cells"
COc1cc2nccc(Oc3ccc(NC(=O)NC4CC4)c(Cl)c3)c2cc1C(N)=O [Lenvatinib],effect of adding Sotagliflozin on inhibitory effect of Lenvatinib,[5],enhanced the inhibitory effect
CCOc1ccc(Cc2cc([C@@H]3O[C@H](SC)[C@@H](O)[C@H](O)[C@H]3O)ccc2Cl)cc1 [Sotagliflozin],IC50,[6],73 µM
same,IC50,[2],116 µM
same,inhibition of tumor growth (in words),"lung cancer A549 cells [3]; A549 tumor-bearing mice, FIG. 7-a to 7-c",can inhibit tumor growth
same,Tumor growth inhibition rate,lung cancer A549 cells [3]; [8],58.4%
same,Tumor volume ratio of each group to the control group,lung cancer A549 cells [3]; [8],0.416
same,Average tumor volume,lung cancer A549 cells [3]; [8],430.3
same,effectiveness evaluation,lung cancer A549 cells [3]; effective if tumor growth inhibition rate greater than 60% and p value less than 0.05,ineffective
same,concentration mainly exhibiting cell growth inhibition effect,[7],lower than 80 μM
same,concentration producing great cytotoxicity,[7],higher than 80 μM
